Data: PubChem BioAssay AID1963849 (Molecular Pharmacology Branch, DTP, NCI, 2024)

Test system: 299254-011-R-J1-PDC complex spheroid viability
Assay: Anticancer human tumor 299254-011-R-J1-PDC patient-derived melanoma cell line growth inhibition [POLQ]
Conditions: for IC50: curve of first compound; for viability, T/C: stronger effect = lower value
Summary of the method: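 Growth inhibition in 3D: complex spheroids (tumor PDC, HUVEC, MSC) treated with POLQ inhibitor combinations; where Cmax unknown, highest tested concentration 10 microM, except SN-38 at 1 microM.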

[1] = second compound 0.0316 µM, first compound 0.0316 µM
[2] = second compound 0.0316 µM, first compound 0.1 µM
[3] = second compound 0.0316 µM, first compound 0.316 µM
[4] = second compound 0.0316 µM, first compound 1 µM
[5] = second compound 0.0316 µM, first compound 3.16 µM
[6] = second compound 0.0316 µM, first compound 10 µM
[7] = second compound 0.1 µM, first compound 0.0316 µM
[8] = second compound 0.1 µM, first compound 0.1 µM
[9] = second compound 0.1 µM, first compound 0.316 µM
[10] = second compound 0.1 µM, first compound 1 µM
[11] = second compound 0.1 µM, first compound 3.16 µM
[12] = second compound 0.1 µM, first compound 10 µM
[13] = second compound 0.316 µM, first compound 0.0316 µM
[14] = second compound 0.316 µM, first compound 0.1 µM
[15] = second compound 0.316 µM, first compound 0.316 µM
[16] = second compound 0.316 µM, first compound 1 µM
[17] = second compound 0.316 µM, first compound 3.16 µM
[18] = second compound 0.316 µM, first compound 10 µM
[19] = second compound 1 µM, first compound 0.0316 µM
[20] = second compound 1 µM, first compound 0.1 µM
[21] = second compound 1 µM, first compound 0.316 µM
[22] = second compound 1 µM, first compound 1 µM
[23] = second compound 1 µM, first compound 3.16 µM
[24] = second compound 1 µM, first compound 10 µM
[25] = second compound 3.16 µM, first compound 0.0316 µM
[26] = second compound 3.16 µM, first compound 0.1 µM
[27] = second compound 3.16 µM, first compound 0.316 µM
[28] = second compound 3.16 µM, first compound 1 µM
[29] = second compound 3.16 µM, first compound 3.16 µM
[30] = second compound 3.16 µM, first compound 10 µM
[31] = second compound 10 µM, first compound 0.0316 µM
[32] = second compound 10 µM, first compound 0.1 µM
[33] = second compound 10 µM, first compound 0.316 µM
[34] = second compound 10 µM, first compound 1 µM
[35] = second compound 10 µM, first compound 3.16 µM
[36] = second compound 10 µM, first compound 10 µM
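Also: spheroids exposed to drugs for one week before measurement.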
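For viability, T/C in this document: percent viability relative to DMSO vehicle control taken as 100%.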

Compound C#Cc1c(F)ccc2cc(O)cc(-c3ncc4c(N5CC6CCC(C5)N6)nc(OCC56CCCN5CC(F)C6)nc4c3F)c12 (stereo not drawn) + Cc1cccc(N(C)C(=O)C2C(O)CCN2c2nc(C)cc(C(F)(F)F)c2C#N)c1 has an IC50 (second compound 0.0316 µM) greater than 10 µM, an IC50 (second compound 0.1 µM) greater than 10 µM and an IC50 (second compound 0.316 µM) greater than 10 µM. The IC50 (second compound 1 µM) was greater than 10 µM, the IC50 (second compound 3.16 µM) was greater than 10 µM and the IC50 (second compound 10 µM) was greater than 10 µM. For the same compound, the viability, T/C [1] was 113%, the viability, T/C [2] was 102% and the viability, T/C [3] was 123%. For the same compound, the viability, T/C [4] was 120%, the viability, T/C [5] was 124% and the viability, T/C [6] was 93.9%. It also gave a viability, T/C [7] of 105%, a viability, T/C [8] of 122% and a viability, T/C [9] of 120%. The viability, T/C [10] was 125%, the viability, T/C [11] was 97.8% and the viability, T/C [12] was 85.5%. It also gave a viability, T/C [13] of 105%, a viability, T/C [14] of 108% and a viability, T/C [15] of 124%. It also gave a viability, T/C [16] of 99.2%, a viability, T/C [17] of 114% and a viability, T/C [18] of 75.5%. For the same compound, the viability, T/C [19] was 123%, the viability, T/C [20] was 109% and the viability, T/C [21] was 113%. It also gave a viability, T/C [22] of 113%, a viability, T/C [23] of 103% and a viability, T/C [24] of 74.6%. For the same compound, the viability, T/C [25] was 114%, the viability, T/C [26] was 99.9% and the viability, T/C [27] was 118%. For the same compound, the viability, T/C [28] was 111%, the viability, T/C [29] was 92% and the viability, T/C [30] was 78.1%. For the same compound, the viability, T/C [31] was 110%, the viability, T/C [32] was 108% and the viability, T/C [33] was 108%. For the same compound, the viability, T/C [34] was 105%, the viability, T/C [35] was 80.1% and the viability, T/C [36] was 64.2%.

O=C(c1cc(Cc2n[nH]c(=O)c3ccccc23)ccc1F)N1CCN(C(=O)C2CC2)CC1 + Nc1ccc(C#CCN(C(=O)Cc2ncc(C(F)(F)F)cc2C(F)(F)F)c2ccc(F)cc2)nn1 gave an IC50 (second compound 0.0316 µM) greater than 10 µM, an IC50 (second compound 0.1 µM) greater than 10 µM and an IC50 (second compound 0.316 µM) greater than 10 µM. For the same compound, the IC50 (second compound 1 µM) was greater than 10 µM, the IC50 (second compound 3.16 µM) was greater than 10 µM and the IC50 (second compound 10 µM) was greater than 10 µM. The viability, T/C [1] was 120%, the viability, T/C [2] was 96.6% and the viability, T/C [3] was 92.4%. It also gave a viability, T/C [4] of 91.7%, a viability, T/C [5] of 107% and a viability, T/C [6] of 95.6%. For the same compound, the viability, T/C [7] was 94%, the viability, T/C [8] was 105% and the viability, T/C [9] was 97.2%. For the same compound, the viability, T/C [10] was 95.3%, the viability, T/C [11] was 112% and the viability, T/C [12] was 88%. For the same compound, the viability, T/C [13] was 111%, the viability, T/C [14] was 122% and the viability, T/C [15] was 106%. For the same compound, the viability, T/C [16] was 105%, the viability, T/C [17] was 97.2% and the viability, T/C [18] was 84.6%. It also gave a viability, T/C [19] of 105%, a viability, T/C [20] of 95.4% and a viability, T/C [21] of 100%. For the same compound, the viability, T/C [22] was 110%, the viability, T/C [23] was 109% and the viability, T/C [24] was 85.3%. It also gave a viability, T/C [25] of 103%, a viability, T/C [26] of 96.7% and a viability, T/C [27] of 94.8%. It also gave a viability, T/C [28] of 113%, a viability, T/C [29] of 93.8% and a viability, T/C [30] of 71%. The viability, T/C [31] was 89.1%, the viability, T/C [32] was 98.5% and the viability, T/C [33] was 113%. It also gave a viability, T/C [34] of 88.8%, a viability, T/C [35] of 99.4% and a viability, T/C [36] of 63.5%.

In the case of O=c1[nH]cc(F)c(=O)[nH]1 + COC1C(OC(N)=O)C(O)C(Oc2ccc3c(O)c(NC(=O)c4ccc(O)c(CC=C(C)C)c4)c(=O)oc3c2C)OC1(C)C, the IC50 (second compound 0.0316 µM) is reported as greater than 10 µM, the IC50 (second compound 0.1 µM) is reported as greater than 10 µM and the IC50 (second compound 0.316 µM) is reported as greater than 10 µM. The IC50 (second compound 1 µM) was greater than 10 µM, the IC50 (second compound 3.16 µM) was greater than 10 µM and the IC50 (second compound 10 µM) was greater than 10 µM. For the same compound, the viability, T/C [1] was 109%, the viability, T/C [2] was 108% and the viability, T/C [3] was 122%. It also gave a viability, T/C [4] of 99.6%, a viability, T/C [5] of 94.3% and a viability, T/C [6] of 66.8%. It also gave a viability, T/C [7] of 110%, a viability, T/C [8] of 110% and a viability, T/C [9] of 114%. It also gave a viability, T/C [10] of 113%, a viability, T/C [11] of 93.7% and a viability, T/C [12] of 76.3%. For the same compound, the viability, T/C [13] was 109%, the viability, T/C [14] was 102% and the viability, T/C [15] was 116%. It also gave a viability, T/C [16] of 101%, a viability, T/C [17] of 91.8% and a viability, T/C [18] of 79.1%. It also gave a viability, T/C [19] of 111%, a viability, T/C [20] of 115% and a viability, T/C [21] of 92.8%. For the same compound, the viability, T/C [22] was 110%, the viability, T/C [23] was 101% and the viability, T/C [24] was 87.7%. It also gave a viability, T/C [25] of 110%, a viability, T/C [26] of 117% and a viability, T/C [27] of 128%. For the same compound, the viability, T/C [28] was 112%, the viability, T/C [29] was 91.3% and the viability, T/C [30] was 68.8%. For the same compound, the viability, T/C [31] was 130%, the viability, T/C [32] was 131% and the viability, T/C [33] was 96.2%. It also gave a viability, T/C [34] of 109%, a viability, T/C [35] of 89.9% and a viability, T/C [36] of 78.3%.

CC1COCCN1c1cc(C2(S(C)(=N)=O)CC2)nc(-c2ccnc3[nH]ccc23)n1 (stereo not drawn) + Nc1ccc(C#CCN(C(=O)Cc2ncc(C(F)(F)F)cc2C(F)(F)F)c2ccc(F)cc2)nn1 was tested, and the IC50 (second compound 0.0316 µM) was 8.31 µM, the IC50 (second compound 0.1 µM) was 5.12 µM and the IC50 (second compound 0.316 µM) was 5.54 µM. It also gave an IC50 (second compound 1 µM) of 5.56 µM, an IC50 (second compound 3.16 µM) of 3.74 µM and an IC50 (second compound 10 µM) of 2.9 µM. The viability, T/C [1] was 123%, the viability, T/C [2] was 89.2% and the viability, T/C [3] was 110%. It also gave a viability, T/C [4] of 84.3%, a viability, T/C [5] of 63.9% and a viability, T/C [6] of 47%. It also gave a viability, T/C [7] of 117%, a viability, T/C [8] of 117% and a viability, T/C [9] of 100%. For the same compound, the viability, T/C [10] was 83.8%, the viability, T/C [11] was 56.3% and the viability, T/C [12] was 40.3%. It also gave a viability, T/C [13] of 107%, a viability, T/C [14] of 110% and a viability, T/C [15] of 87.3%. The viability, T/C [16] was 89.2%, the viability, T/C [17] was 63% and the viability, T/C [18] was 34.9%. The viability, T/C [19] was 105%, the viability, T/C [20] was 111% and the viability, T/C [21] was 94.4%. For the same compound, the viability, T/C [22] was 94.8%, the viability, T/C [23] was 59.1% and the viability, T/C [24] was 39.8%. The viability, T/C [25] was 99%, the viability, T/C [26] was 91.8% and the viability, T/C [27] was 102%. It also gave a viability, T/C [28] of 82.1%, a viability, T/C [29] of 53.2% and a viability, T/C [30] of 35.5%. The viability, T/C [31] was 91.5%, the viability, T/C [32] was 99.2% and the viability, T/C [33] was 84.8%. It also gave a viability, T/C [34] of 76%, a viability, T/C [35] of 46.7% and a viability, T/C [36] of 37.1%.
